Source: PubChem BioAssay (NCI)
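In this assay, cells in 96-well plates receive the compound at five concentrations for 48 hours. Endpoints are linearly interpolated between the surrounding concentrations. Here, GI50 denotes the concentration required for 50% inhibition of growth. TGI: total growth inhibition.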

How the values were obtained:
Assay in all cases: NCI-60 cell line screen, 48 h
T-47D breast = tested on: T-47D breast
SNB-75 CNS = tested on: SNB-75 CNS
ACHN renal = tested on: ACHN renal
SK-OV-3 ovarian = tested on: SK-OV-3 ovarian
HOP-62 NSCLC = tested on: HOP-62 NSCLC
SK-MEL-28 melanoma = tested on: SK-MEL-28 melanoma
SK-MEL-5 melanoma = tested on: SK-MEL-5 melanoma
COLO 205 colon = tested on: COLO 205 colon
CCRF-CEM leukemia = tested on: CCRF-CEM leukemia
SK-MEL-2 melanoma = tested on: SK-MEL-2 melanoma

Which GI50 (T-47D breast) does the source give for `N#Cc1cc(F)cc(Oc2ccc(S(=O)(=O)C(F)F)c3c2CC(F)(F)[C@H]3O)c1` here?
Its GI50 is 16.3 µM.

And the TGI (T-47D breast)?
Its TGI is over 100 µM.

And the GI50 (SNB-75 CNS)?
The GI50 was 12.6 µM.

And the TGI (SNB-75 CNS)?
Its TGI is 67.3 µM.

And the GI50 (ACHN renal)?
The GI50 was 30.4 µM.

And the TGI (ACHN renal)?
Its TGI is over 100 µM.

What about the GI50 (SK-OV-3 ovarian) of the same compound?
The GI50 was 31.4 µM.

What about the TGI (SK-OV-3 ovarian) of the same compound?
The TGI was over 100 µM.

And the GI50 (HOP-62 NSCLC)?
Its GI50 is 51.1 µM.

What about the TGI (HOP-62 NSCLC) of the same compound?
Its TGI is over 100 µM.

And the GI50 (SK-MEL-28 melanoma)?
Its GI50 is 36.1 µM.

And the TGI (SK-MEL-28 melanoma)?
Its TGI is over 100 µM.

What about the GI50 (SK-MEL-5 melanoma) of the same compound?
Its GI50 is 17.6 µM.

And the TGI (SK-MEL-5 melanoma)?
The TGI was 34.7 µM.

What about the GI50 (COLO 205 colon) of the same compound?
Its GI50 is 25.6 µM.

What about the TGI (COLO 205 colon) of the same compound?
Its TGI is 63.1 µM.

What about the GI50 (CCRF-CEM leukemia) of the same compound?
The GI50 was 22.9 µM.

And the TGI (CCRF-CEM leukemia)?
Its TGI is over 100 µM.

What about the GI50 (SK-MEL-2 melanoma) of the same compound?
Its GI50 is 16.4 µM.

And the TGI (SK-MEL-2 melanoma)?
Its TGI is 59.8 µM.

With `Cc1ccc(C(=O)Nc2ccc(CP(=O)(O)O)cc2CP(=O)(O)O)cc1N` as the compound, how does the TGI (T-47D breast) read?
The TGI was over 100 µM.

What about the TGI (SNB-75 CNS) of the same compound?
The TGI was over 100 µM.

What about the TGI (ACHN renal) of the same compound?
Its TGI is over 100 µM.

What about the TGI (SK-OV-3 ovarian) of the same compound?
The TGI was over 100 µM.

What about the TGI (HOP-62 NSCLC) of the same compound?
Its TGI is over 100 µM.

And the TGI (SK-MEL-28 melanoma)?
Its TGI is over 100 µM.

And the TGI (SK-MEL-5 melanoma)?
The TGI was over 100 µM.

What about the TGI (COLO 205 colon) of the same compound?
The TGI was over 100 µM.

And the TGI (CCRF-CEM leukemia)?
The TGI was over 100 µM.

And the TGI (SK-MEL-2 melanoma)?
Its TGI is over 100 µM.

With `O=C(O)[C@H]1NC[C@H]2C(Br)=NO[C@@H]12` as the compound, how does the TGI (T-47D breast) read?
Its TGI is over 100 µM.

And the TGI (SNB-75 CNS)?
Its TGI is over 100 µM.

And the TGI (ACHN renal)?
The TGI was over 100 µM.

What about the TGI (SK-OV-3 ovarian) of the same compound?
The TGI was over 100 µM.

And the TGI (HOP-62 NSCLC)?
The TGI was over 100 µM.

And the TGI (SK-MEL-28 melanoma)?
Its TGI is over 100 µM.

What about the TGI (SK-MEL-5 melanoma) of the same compound?
Its TGI is over 100 µM.

And the TGI (COLO 205 colon)?
Its TGI is over 100 µM.

What about the TGI (CCRF-CEM leukemia) of the same compound?
Its TGI is over 100 µM.

What about the TGI (SK-MEL-2 melanoma) of the same compound?
Its TGI is over 100 µM.
